Assay results as given in ChEMBL document CHEMBL1125524, “Adenosine A1 antagonists. 2. Structure-activity relationships on diuretic activities and protective effects against acute renal failure” (J Med Chem, 1992).

Tests used:
[1] = system: Rattus norvegicus; experiment: Effect on urinary excretion potassium and sodium after oral administration of 25 mg/kg to rats(potassium and sodium excretion in control rat is 0.160+/-0.017); format: functional, Urine
[2] = system: Rattus norvegicus; experiment: Percent inhibition of Urea nitrogen by the compound given as ratio of UN value in treated to vehicle treated ones fter intraperitoneal administration of 10 mg/kg of compound to rats(vehicle 137.9+/-8.5); format: functional; conditions: ip
[3] = biological target: T1, Adenosine receptor A1 (Cavia porcellus, UniProt P47745)
T1 sequence (P47745 whole entry): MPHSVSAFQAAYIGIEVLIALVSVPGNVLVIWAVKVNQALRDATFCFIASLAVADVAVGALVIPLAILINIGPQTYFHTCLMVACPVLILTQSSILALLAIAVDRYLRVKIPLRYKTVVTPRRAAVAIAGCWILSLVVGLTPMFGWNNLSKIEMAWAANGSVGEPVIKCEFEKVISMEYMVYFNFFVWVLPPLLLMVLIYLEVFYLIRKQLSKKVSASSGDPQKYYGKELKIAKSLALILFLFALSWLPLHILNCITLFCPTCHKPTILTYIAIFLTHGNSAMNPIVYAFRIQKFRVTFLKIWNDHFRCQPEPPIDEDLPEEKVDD
Description: Binding affinity against adenosine A1 receptor in guinea pig forebrain membranes using N6-[3H]cyclohexyladenosine as radioligand

[4] = system: Rattus norvegicus; experiment: Percent inhibition of serum creatinine by the compound given as ratio of Cr value in treated to vehicle treated ones after intraperitoneal administration of 10 mg/kg of compound to rats (vehicle0.63+/-0.29); format: functional; conditions: ip
[5] = system: Rattus norvegicus; experiment: Ratio of urinary excretion value (Na+ concentration) in treated rats to that in control rats, at a peroral dose of 25 mg/Kg; format: functional, Urine
[6] = system: Rattus norvegicus; experiment: Ratio of sodium ion/potassium ion concentration in treated rats to that in control rats, at a peroral dose of 25 mg/Kg; format: functional
[7] = system: Rattus norvegicus; experiment: Ratio of urinary excretion value (urinary volume) in treated rats to that in control rats, at a peroral dose of 25 mg/Kg; format: functional, Urine
[8] = system: Rattus norvegicus; experiment: Urea nitrogen concentration measured after intraperitoneal administration of 10 mg/kg of compound to rats(vehicle 137.9+/-8.5); format: functional
[9] = biological target: Adenosine A2 receptor (Rattus norvegicus, UniProt P29276+P30543)
[10] = system: Rattus norvegicus; experiment: Serum creatinine concentration measured after intraperitoneal administration of 10 mg/kg of compound to rats (vehicle0.63+/-0.29); format: functional
[11] = system: Rattus norvegicus; experiment: Oral diuretic activity was measured after oral administration of 25 mg/kg to rats(control volume is 0.80+/-0.13); format: functional, Urine
[12] = organism: Rattus norvegicus; format: functional, Urine; conditions: po, 1.6 mg/kg
[13] = system: Rattus norvegicus; experiment: Ratio of urinary excretion value (Na+ concentration) in treated rats to that in control rats, at a peroral dose of 1.6 mg/Kg; format: functional, Urine
[14] = system: Rattus norvegicus; experiment: Effect on urinary excretion potassium and sodium after oral administration of 0.025 mg/kg to rats(potassium and sodium excretion in control rat is 0.183+/-0.012); format: functional, Urine
[15] = system: Rattus norvegicus; experiment: Ratio of sodium ion/potassium ion concentration in treated rats to that in control rats, at a peroral dose of 0.0025 mg/Kg; format: functional
[16] = system: Rattus norvegicus; experiment: Oral diuretic activity was measured after oral administration of 0.1 mg/kg to rats(control volume is 0.92+/-0.05); format: functional, Urine
[17] = system: Rattus norvegicus; experiment: Ratio of urinary excretion value (urinary volume) in treated rats to that in control rats, at a peroral dose of 1.6 mg/Kg; format: functional, Urine
[18] = system: Rattus norvegicus; experiment: Percent inhibition of serum creatinine by the compound given as ratio of Cr value in treated to vehicle treated ones after intraperitoneal administration of 1 mg/kg of compound to rats(vehicle 2.75+/-0.43); format: functional; conditions: ip
[19] = system: Rattus norvegicus; experiment: Effect on urinary excretion potassium and sodium after oral administration of 1.6 mg/kg to rats(potassium and sodium excretion in control rat is 0.173+/-0.016); format: functional, Urine
[20] = system: Rattus norvegicus; experiment: Serum creatinine concentration measured after intraperitoneal administration of 1 mg/kg of compound to rats(vehicle 2.75+/-0.43); format: functional
[21] = system: Rattus norvegicus; experiment: Ratio of urinary excretion value (Na+ concentration) in treated rats to that in control rats, at a peroral dose of 0.4 mg/Kg; format: functional, Urine
[22] = system: Rattus norvegicus; experiment: Oral diuretic activity was measured after oral administration of 25 mg/kg to rats(control volume is 0.66+/-0.04); format: functional, Urine
[23] = system: Rattus norvegicus; experiment: Ratio of urinary excretion value (urinary volume) in treated rats to that in control rats, at a peroral dose of 0.005 mg/Kg; format: functional, Urine
[24] = system: Rattus norvegicus; experiment: Oral diuretic activity was measured after oral administration of 0.025 mg/kg to rats(control volume is 0.82+/-0.05); format: functional, Urine
[25] = system: Rattus norvegicus; experiment: Effect on urinary excretion potassium and sodium after oral administration of 0.005 mg/kg to rats(potassium and sodium excretion in control rat is 0.160+/-0.006); format: functional, Urine
[26] = system: Rattus norvegicus; experiment: Ratio of urinary excretion value (Na+ concentration) in treated rats to that in control rats, at a peroral dose of 0.025 mg/Kg; format: functional, Urine
[27] = system: Rattus norvegicus; experiment: Ratio of sodium ion/potassium ion concentration in treated rats to that in control rats, at a peroral dose of 1.6 mg/Kg; format: functional
[28] = system: Rattus norvegicus; experiment: Percent inhibition of Urea nitrogen by the compound given as ratio of UN value in treated to vehicle treated ones after intraperitoneal administration of 1 mg/kg of compound to rats(vehicle 123.2+/-14.2); format: functional; conditions: ip
[29] = system: Rattus norvegicus; experiment: Ratio of sodium ion/potassium ion concentration in treated rats to that in control rats, at a peroral dose of 0.4 mg/Kg; format: functional
[30] = system: Rattus norvegicus; experiment: Effect on urinary excretion potassium and sodium after oral administration of 0.1 mg/kg to rats(potassium and sodium excretion in control rat is 0.143+/-0.013); format: functional, Urine
[31] = system: Rattus norvegicus; experiment: Effect on urinary excretion potassium and sodium after oral administration of 0.0025 mg/kg to rats(potassium and sodium excretion in control rat is 0.146+/-0.006); format: functional, Urine
[32] = system: Rattus norvegicus; experiment: Effect on urinary excretion potassium and sodium after oral administration of 0.4 mg/kg to rats(potassium and sodium excretion in control rat is 0.261+/-0.008); format: functional, Urine
[33] = system: Rattus norvegicus; experiment: Ratio of urinary excretion value (Na+ concentration) in treated rats to that in control rats, at a peroral dose of 0.005 mg/Kg; format: functional, Urine
[34] = system: Rattus norvegicus; experiment: Ratio of sodium ion/potassium ion concentration in treated rats to that in control rats, at a peroral dose of 0.025 mg/Kg; format: functional
[35] = system: Rattus norvegicus; experiment: Ratio of urinary excretion value (urinary volume) in treated rats to that in control rats, at a peroral dose of 6.25 mg/Kg; format: functional, Urine
[36] = system: Rattus norvegicus; experiment: Ratio of urinary excretion value (Na+ concentration) in treated rats to that in control rats, at a peroral dose of 0.1 mg/Kg; format: functional, Urine
[37] = system: Rattus norvegicus; experiment: Ratio of urinary excretion value (urinary volume) in treated rats to that in control rats, at a peroral dose of 0.1 mg/Kg; format: functional, Urine
[38] = system: Rattus norvegicus; experiment: Ratio of sodium ion/potassium ion concentration in treated rats to that in control rats, at a peroral dose of 0.1 mg/Kg; format: functional
[39] = system: Rattus norvegicus; experiment: Ratio of urinary excretion value (urinary volume) in treated rats to that in control rats, at a peroral dose of 0.4 mg/Kg; format: functional, Urine
[40] = system: Rattus norvegicus; experiment: Urea nitrogen concentration measured after intraperitoneal administration of 1 mg/kg of compound to rats(vehicle 123.2+/-14.2); format: functional
[41] = system: Rattus norvegicus; experiment: Oral diuretic activity was measured after oral administration of 0.4 mg/kg to rats(control volume is 1.4+/-0.05); format: functional, Urine
[42] = system: Rattus norvegicus; experiment: Oral diuretic activity was measured after oral administration of 0.0025 mg/kg to rats(control volume is 0.95+/-0.12); format: functional, Urine
[43] = system: Rattus norvegicus; experiment: Ratio of urinary excretion value (urinary volume) in treated rats to that in control rats, at a peroral dose of 0.025 mg/Kg; format: functional, Urine
[44] = system: Rattus norvegicus; experiment: Oral diuretic activity was measured after oral administration of 0.005 mg/kg to rats(control volume is 0.76+/-0.01); format: functional, Urine
[45] = system: Rattus norvegicus; experiment: Ratio of urinary excretion value (urinary volume) in treated rats to that in control rats, at a peroral dose of 0.0025 mg/Kg; format: functional, Urine
[46] = system: Rattus norvegicus; experiment: Ratio of urinary excretion value (Na+ concentration) in treated rats to that in control rats, at a peroral dose of 0.0025 mg/Kg; format: functional, Urine
[47] = system: Rattus norvegicus; experiment: Effect on urinary excretion potassium and sodium after oral administration of 25 mg/kg to rats(potassium and sodium excretion in control rat is 0.138+/-0.008); format: functional, Urine
[48] = system: Rattus norvegicus; experiment: Ratio of urinary excretion value (Na+ concentration) in treated rats to that in control rats, at a peroral dose of 6.25 mg/Kg; format: functional, Urine
[49] = system: Rattus norvegicus; experiment: Ratio of sodium ion/potassium ion concentration in treated rats to that in control rats, at a peroral dose of 0.005 mg/Kg; format: functional

CCCn1c(=O)c2nc(CC34CC5CC(CC(C5)C3)C4)[nH]c2n(CCC)c1=O
Na [1]: 0.108 m equiv 6hr-1 100g-1 | inhibition in vivo at 10 mg/kg [2]: 15% | Ki [3]: 880 nM | inhibition in vivo at 10 mg/kg [4]: 12% | T/C [5]: 0.67 | Na+/K+ [6]: 0.84 | T/C [7]: 0.64 | UN [8]: 117.8 mg/dL | Ki [9]: > 100000 nM | Cr [10]: 3.21 mg/dL | Urine volume [11]: 0.51 ml 6hr-1 100g-1

CCCn1c(=O)c2nc(C34CC5CC(CC3C5)C4)[nH]c2n(CCC)c1=O [ROLOFYLLINE]
Urine volume [12]: 2.77 ml 6hr-1 100g-1 | T/C [13]: 2.3 | Na [14]: 0.331 m equiv 6hr-1 100g-1 | Na+/K+ [15]: 1.59 | Urine volume [16]: 2.44 ml 6hr-1 100g-1 | T/C [17]: 2.61 | inhibition in vivo at 1 mg/kg [18]: 47% | Na [19]: 0.399 m equiv 6hr-1 100g-1 | Cr [20]: 2 mg/dL | T/C [21]: 1.7 | Urine volume [22]: 2.74 ml 6hr-1 100g-1 | T/C [23]: 1.83 | Urine volume [24]: 1.75 ml 6hr-1 100g-1 | Na [25]: 0.256 m equiv 6hr-1 100g-1 | T/C [26]: 1.81 | Na+/K+ [27]: 1.93 | inhibition in vivo at 1 mg/kg [28]: 46% | Na+/K+ [29]: 1.42 | Na [30]: 0.334 m equiv 6hr-1 100g-1 | Na [31]: 0.258 m equiv 6hr-1 100g-1 | Na [32]: 0.447 m equiv 6hr-1 100g-1 | T/C [33]: 1.6 | Na+/K+ [34]: 1.45 | T/C [35]: 2.9 | T/C [36]: 2.34 | T/C [37]: 2.65 | Na+/K+ [38]: 1.9 | T/C [39]: 1.86 | UN [40]: 66.4 mg/dL | Urine volume [41]: 2.64 ml 6hr-1 100g-1 | T/C [5]: 3.44 | Urine volume [42]: 1.61 ml 6hr-1 100g-1 | T/C [43]: 2.13 | Urine volume [44]: 1.39 ml 6hr-1 100g-1 | Na+/K+ [6]: 2.05 | T/C [45]: 1.69 | T/C [7]: 4.15 | T/C [46]: 1.76 | Na [47]: 0.457 m equiv 6hr-1 100g-1 | Ki [9]: 380 nM | T/C [48]: 2.64 | Na+/K+ [49]: 1.11
